The structures appear in SMILES notation. Like-named read-outs stand apart in the source and are kept apart here. Where only a bound is given, the exact number is not on record here.

A short description of data set [1]: logP by HPLC on reversed-phase columns (C 18), EEC Directive 79/831 Annex V.A8. To be noted: for logP [b]: LC-MS, pH 2.7, 0.1% aqueous formic acid and acetonitrile. In kind it is physicochemical.
In another data set the test system is Fusarium proliferatum. Put plainly: Production of Fumonisin FB1 by Fusarium proliferatum (microtitre plate, FB1 by HPLC-MS/MS, growth by OD). It counts as cell-based. To be noted: for pI50 Fum: FB1 concentration in medium after 6 days at 20° C., HPLC-MS/MS; for pI50 growth: OD620 at the beginning and after 6 days.
For the next data set, the system named is Fusarium graminearum. It counts as cell-based. The settings on record: 50 µM.
For a further data set, the system named is Gibberella zeae. To be noted: in vivo.
Setting [2] is: method marker [b], footnote not given, compound 68 value matches logP (pH 2.3).
Where [3] appears, read: values marked [b], footnote not given.
Setting [4] is: method marker [a], footnote not given.
The mark [5] stands for this setting: values marked [c], footnote not given.
Where [6] appears, read: reversed-phase HPLC column (C 18), pH 2.3, pH 2.3, 0.1% aqueous phosphoric acid and acetonitrile, read-out: logP [a].
The mark [7] stands for this setting: method marker [b] (compound 257: pH2.7).

Take `COCC(C)Nc1nc(Nc2cccc(OC)c2)ncc1Br` (centres unmarked) [Example 109]: the logP in data set [1] (setting [2]) is 1.9[b]. Besides, in the data set on Fusarium proliferatum, the “pI50 Fum” value is recorded as 4.7 and the pI50 growth is on record as less than 4.3. Regarding `COCC(C)Nc1nc(Nc2ccc(OC)c(OC)c2)ncc1Br` (centres unmarked) [Example 74], the logP in data set [1] (setting [2]) was 1.55[b]. Besides, in the data set with Fusarium proliferatum, the “pI50 Fum” value was 4.6 and the pI50 growth is on record as less than 4.3.

As for `COCC(C)Nc1nc(Nc2ccc(C(C)=O)cc2)ncc1Cl` (centres unmarked) [Example 152], the logP in data set [1] (setting [3]) was 2.02[b]. Also, in the data set with Fusarium proliferatum, the “pI50 Fum” value is 5 and the pI50 growth was less than 4.3. Regarding `CN(C)S(=O)(=O)c1cccc(Nc2ncc(Cl)c(NC(C)(C)C)n2)c1` [Example 51], in data set [1] (setting [4]), the logP was 2.73[a]. Besides, the pI50 growth in the data set on Fusarium proliferatum is on record as less than 4.3. As for `CCc1cccc(Nc2ncc(Cl)c(NC(C)C)n2)c1` [Example 230], the logP in data set [1] (setting [3]) is 2.33[b]; in data set [1] (setting [5]), 4.25[c];. In the data set with Fusarium graminearum, the “growth inhibition of Fusarium graminearum” value is listed as 86%. Further, in the data set on Fusarium graminearum, the “inhibitory activity of DON/AcDON” value is on record as more than 80%. With `CC(C)Nc1nc(Nc2ccc(CC(=O)C(C)(C)C)cc2)ncc1Cl` [Example 199], in data set [1] (setting [3]), the logP is 2.3[b]. Also, in the data set on Fusarium proliferatum, the pI50 growth turned out to be 4.9. On to `CC(C)Nc1nc(Nc2cccc(O)c2)ncc1Cl` [Example 214], for which the logP in data set [1] (setting [3]) is 1.39[b]. For the same compound, in the data set with Fusarium proliferatum, the “pI50 Fum” value is reported as 6 and the pI50 growth was less than 4.3. Turning to `CSc1cccc(Nc2ncc(Cl)c(NC(C)C)n2)c1` [Example 173], in the data set with Gibberella zeae, the efficacy is not below 80%. Moreover, the logP was 2.36[a]; in data set [1] (values marked [a], pH 2.3) and 3.89[c] in data set [1] (setting [5]). In addition, the “pI50 Fum” value in the data set with Fusarium proliferatum is reported as 4.8. The pI50 growth in the data set on Fusarium proliferatum was less than 4.3.

`CNC(=O)Oc1cccc(Nc2ncc(Cl)c(NC(C)C)n2)c1` [Example 203]: the logP in data set [1] (setting [3]) was 1.53[b]. In the data set with Fusarium proliferatum, this compound returned a pI50 growth of 4.6.

For the compound `CC(=O)N(C)c1ccc(Nc2ncc(Cl)c(NC(C)C)n2)cc1` [Example 192], the logP in data set [1] (setting [3]) was 1.51[b]. With `CC(C)Nc1nc(Nc2ccc(C(=O)N(C)C)cc2)ncc1Cl` [Example 234], the logP in data set [1] (setting [3]) is 1.44[b]. In addition, in data set [1] (setting [5]), the logP was 2.27[c];. For the same compound, in the data set with Fusarium proliferatum, the “pI50 Fum” value came to 5.3 and the pI50 growth worked out at 4.6. With `CCC(=O)N(C)c1cccc(N)c1` [IV-9, N-(3-aminophenyl)-N-methylpropanamide], the chromatographic logP in data set [1] (setting [6]) stood at 0.63. Regarding `C=CCCNc1nc(Nc2ccccc2)ncc1Cl` [Example 294], in data set [1] (setting [7]), the logP was 1.87[b].

For `C=CCN(C)c1nc(Nc2ccccc2)ncc1Cl` [Example 271], the logP is 2.66[b] in data set [1] (setting [7]) and 4.03[c]; in data set [1] (method marker [c]). With `COCC(C)Nc1nc(Nc2cccc(SC)c2)ncc1Cl` (centres unmarked) [Example 101], the logP in data set [1] (setting [2]) was 2.13[b]. The same measure, in the same setting: to `COCC(C)Nc1nc(Nc2cccc(OC(F)(F)F)c2)ncc1Cl` (centres unmarked) [Example 87] belongs 3.14[b]. `CN(C)c1nc(Nc2ccccc2)ncc1Cl` [Example 33]: the logP is 1.78[a]; in data set [1] (setting [4]) and 1.73[b] in data set [1] (setting [2]).

With `CNC(=O)c1ccc(Nc2ncc(Cl)c(NC(C)COC)n2)cc1` (racemic) [Example 135], in data set [1] (setting [3]), the logP was 1.38[b]. With `CC(C)Nc1nc(Cl)ncc1Br` [Example V-10, 5-bromo-2-chloro-N-(propan-2-yl)pyrimidine-4-amine], the chromatographic logP in data set [1] (setting [6]) stood at 2.62. For `COCC(C)Nc1nc(Nc2ccc(C(F)(F)F)cc2)ncc1Cl` (centres unmarked) [Example 82], the logP in data set [1] (setting [2]) is 3.22[b]. In data set [1] (pH 2.3, logP [a]), `CC(C)N(C)c1nc(Cl)ncc1Cl` [Example V-11, 2,5-dichloro-N-methyl-N-(propan-2-yl)pyrimidine-4-amine] yielded a chromatographic logP of 3.16. Take `Nc1cccc(CS(=O)(=O)NCc2ccccc2)c1` [IV-8, 1-(3-aminophenyl)-N-benzylmethanesulphonamide]: the chromatographic logP in data set [1] (setting [6]) worked out at 1.32.

As for `CC(C)Nc1nc(Nc2cccc(S(=O)(=O)N3CCCCC3)c2)ncc1Cl` [Example 198], in data set [1] (setting [3]), the logP is 2.08[b]. In the case of `COCC(C)Nc1nc(Nc2ccc(OC(F)(F)F)c(Cl)c2)ncc1Cl` (centres unmarked) [Example 98], in data set [1] (setting [2]), the logP was 3.99[b].

For the compound `CC(C)Nc1nc(Nc2cccc(CN3CCN(C)C3=O)c2)ncc1Cl` [Example 48], the logP in data set [1] (setting [2]) was 1.54[b]; in data set [1] (method marker [c], footnote not given) it was 2.56[c];.

In the case of `CCNc1nc(Nc2cccc(SC)c2)ncc1Cl` [Example 238], the logP is 1.92[b] in data set [1] (setting [3]) and 3.46[c]; in data set [1] (setting [5]). Take `COc1cccc(Nc2ncc(Cl)c(NC(C)C)n2)c1` [Example 182]: the logP in data set [1] (setting [3]) is 1.86[b]. Consider `CNC(=O)Oc1cccc(Nc2ncc(Cl)c(NC(C)COC)n2)c1` (racemic) [Example 144], for which the logP in data set [1] (setting [3]) was 1.48[b]. Turning to `CCN(c1nc(Cl)ncc1Cl)C(C)C` [Example V-30, 2,5-dichloro-N-ethyl-N-isopropylpyrimidine-4-amine], the chromatographic logP in data set [1] (setting [6]) worked out at 3.8.

With `CCN(c1nc(Nc2ccccc2)ncc1Cl)C(C)C` [Example 269], the logP in data set [1] (setting [7]) was 3[b].

For the compound `CCCC(CC)Nc1nc(Nc2ccccc2)ncc1Br` (centres unmarked) [Example 228], the logP in data set [1] (values marked [a], pH 2.3) is 2.44[a]. In addition, the pI50 growth in the data set on Fusarium proliferatum is given as less than 4.3. For the compound `CC(C)CCNc1nc(Cl)ncc1Cl` [Example V-22, 2,5-dichloro-N-(3-methylbutyl)pyrimidine-4-amine], in data set [1] (setting [6]), the chromatographic logP worked out at 3.45. Consider `C=C(C)CNc1nc(Nc2ccccc2)ncc1Cl` [Example 288], for which the logP in data set [1] (setting [7]) is 2.62[b]. As to `COCC(C)Nc1nc(Nc2cccc(NC(=O)c3ccco3)c2)ncc1Cl` (centres unmarked) [Example 168], the logP in data set [1] (setting [3]) was 1.68[b]. Regarding `CCC(C)Nc1nc(Cl)ncc1Cl` (centres unmarked) [Example V-14, 2,5-dichloro-N-(butan-2-yl)pyrimidine-4-amine], the chromatographic logP in data set [1] (pH 2.3, logP [a]) was determined as 2.94. With `C=CCNC(=O)c1ccc(Nc2ncc(Cl)c(NC(C)COC)n2)cc1` (racemic) [Example 136], the logP in data set [1] (setting [3]) was 1.64[b]. In addition, in the data set on Fusarium proliferatum, the “pI50 Fum” value stood at 4.4 and the pI50 growth is reported as less than 4.3. Turning to `CN(C)c1nc(Nc2ccc(S(C)(=O)=O)cc2)ncc1Cl` [Example 28], the logP in data set [1] (setting [4]) was 1.98[a]. Consider `C[Si](C)(C)CNc1nc(Nc2ccccc2)ncc1Cl` [Example 287], for which, in data set [1] (setting [7]), the logP is 2.14[b]. Consider `CC(C)CN(C)c1nc(Nc2ccccc2)ncc1Cl` [Example 270], for which the logP in data set [1] (setting [7]) is 3[b].

As for `CS(=O)(=O)c1ccc(Nc2ncc(Cl)c(NC3CCCCC3)n2)cc1` [Example 267], the logP in data set [1] (method marker [a]) is 2.54[a].

Regarding `CC(C)Nc1nc(Nc2cccc(S(=O)(=O)N(C)C)c2)ncc1Cl` [Example 47], the logP in data set [1] (setting [4]) was 2.08[a].

Consider `COCC(C)Nc1nc(Nc2ccc(NC3CC3)nc2)ncc1Cl` (centres unmarked) [II-3], for which, in data set [1], the “logP [b]” value was 1.17[b]. Take `CCC(C)N(C)c1nc(Cl)ncc1Cl` (centres unmarked) [Example V-15, N-(butan-2-yl)-2,5-dichloro-N-methylpyrimidine-4-amine]: the chromatographic logP in data set [1] (setting [6]) was 3.62. Take `CCC(C)Nc1nc(Nc2ccccc2)ncc1Cl` (centres unmarked) [Example 296]: the logP in data set [1] (setting [7]) is 2.05[b]. On to `COCCNc1nc(Nc2cc(OC)cc(OC)c2)ncc1Cl` [Example 4], for which the logP in data set [1] (setting [4]) is 1.67[a].

Turning to `COCC(C)Nc1nc(Nc2ccc(OC)nc2)ncc1Cl` (centres unmarked) [II-2], the “logP [b]” value in data set [1] is 1.39[b].

`C=CCNC(=O)c1ccc(Nc2ncc(Br)c(NC(C)COC)n2)cc1` (racemic) [Example 128]: in data set [1] (setting [3]), the logP was 1.75[b]. Take `COCC(C)Nc1nc(Nc2ccc(SC(F)F)cc2)ncc1Cl` (centres unmarked) [Example 172]: in data set [1] (setting [3]), the logP is 2.8[b]. For `COCC(C)Nc1nc(Nc2ccc(OC)cc2)ncc1Br` (centres unmarked) [Example 110], the logP in data set [1] (setting [2]) was 1.63[b]. For the compound `CN(C)c1nc(Nc2ccccc2)ncc1Br` [Example 178], the logP in data set [1] (setting [3]) is 1.86[b]. For the compound `CCC(C)N(C)c1nc(Nc2cccc(C(C)=O)c2)ncc1Cl` (centres unmarked) [Example 179], in data set [1] (values marked [a], pH 2.3), the logP was 2.88[a].

On to `CN(C)c1nc(Nc2ccccc2)ncc1C#N` [Example 44], for which, in data set [1] (setting [2]), the logP was 2.36[b]. For the compound `COCC(C)Nc1nc(Nc2ccc(S(=O)(=O)N3CCOCC3)cc2)ncc1Cl` (centres unmarked) [Example 63], the logP in data set [1] (setting [4]) is 2.18[a]. `C=CCNc1nc(Cl)ncc1Cl` [Example V-13, 2,5-dichloro-N-(prop-2-en-1-yl)pyrimidine-4-amine] came in with a chromatographic logP in data set [1] (pH 2.3, logP [a]) of 2.12. For the compound `CCOc1cccc(Nc2ncc(Br)c(NC(C)COC)n2)c1` (centres unmarked) [Example 116], the logP in data set [1] (setting [2]) is 2.18[b]. Regarding `COCCNc1nc(Nc2ccc(S(=O)(=O)N(C)C)cc2)ncc1Cl` [Example 6], the results for the logP in data set [1] (setting [4]) and in data set [1] (setting [2]) were 1.9[a]; and 1.9[b], respectively. Consider `COCC(C)Nc1nc(Nc2cccc(Cl)c2)ncc1Br` (centres unmarked) [Example 71], for which, in data set [1] (setting [2]), the logP is 2.82[b].

The values above are taken from US20110230478A1 (Bayer ScienceCrop AG, priority 2008, published 2011).
